Tested on: EA-specific antibodies
Assay: Production of EA-specific antibodies in mice (Table 2)
Assay type: in vivo
Details: EA 50 μg, BaBb/c mice, preparation 20 μg intraperitoneal
Experimental: Erythrocytes of defibrinated sheep blood were washed three times by centrifugation (1000 rpm, 10 m)in 50-fold volume of Hanks' solution, and were then re-suspended in the same solution. Mice were immunised intraperitoneally with 2 ml SE, 200 μg BSA or 50 μg EA. The latter two antigens were injected twice, with a 2-4 week interval between immunisations.
The appropriate amount of APG was dissolved in Hank's solution or in physiological saline, 2-3 hours prior to use. APG was administered to mice in doses of between 1 and 1000 μg. When. mice were immunised with BSA, EA or SE, APG was administered simultaneously with the antigen.
The intensity of the immune response in mice which were immunised with SE was determined according to the number of antibody-forming cells (AFC), detected in the spleen cell suspensions using the method of Jerne and Nordin (1963). AFC were detected 4-5 days following immunisation. Presence of antibodies specific to EA or BSA in blood serum of mice was detected using a solid-phase enzyme-immunoassay (EIA). Isotype of antibodies specific to BSA was determined by EIA using secondary rabbit antibodies specific to mouse IgM, IgG1, IgG2a, IgG2b or IgG3.
The lipopeptide was Pam3Cys-Ser-Lys4 a well-known immunoadjuvant.

Pam3Cys-Ser-Lys4 [lipopeptide] was tested, and the “Serum Titer of EA-specific Antibodies” value was 20,000.
